The results in this text go back to patent publication US10227343B2, “Isoquiniline and napthalene-substituted compounds as mGluR4 allosteric potentiators, compositions, and methods of treating neurological dysfunction” (Vanderbilt University, priority 2015, dated 2019).

For this experiment, the system named is haloperidol induced catalepsy. The experiment is described as follows: reversal of haloperidol induced catalepsy. Format: in vivo, Sprague-Dawley rats. The conditions noted are these: rats, haloperidol 1.5 mg/kg i.p., compound 0.1-56.6 mg/kg oral, tested 30 minutes after compound; data in FIG. 5. Here is the method: Animals. Male Sprague-Dawley rats weighing between 275 and 300 g (Harlan Laboratories, Indianapolis, Ind.) were used for the behavioral studies and were maintained in accordance with American Association for the Accreditation of Laboratory Animal Care guidelines under a 12-h light/dark cycle (lights on at 6 AM, lights off at 6 PM) with free access to food and water. The experimental procedures, which were performed during the light cycle, were approved by the Institutional Animal Care and Use Committee of Vanderbilt University and conformed to the guidelines established by the National Research Council Guide for the Care and Use of laboratory Animals. Rats were injected with haloperidol (1.5 mg/kg, i.p., dissolved in 8.5% lactic acid, pH=6) 60 minutes prior to the oral administration of Example 46 ((0.1-56.6 mg/kg) or vehicle (10% Tween 80). 30 minutes after compound administration all rats were tested for catalepsy. Catalepsy was assessed using a horizontal bar placed 6 cm from the testing surface. The forepaws of each rat were placed gently on the bar with the body positioned at an angle of ˜45° to the testing surface. The latency in seconds required for the rat to remove one or both forepaws from the bar was manually measured with a cutoff of 30 seconds.

Take `FC(F)(F)c1nccc2cc(Nc3n[nH]c4ncccc34)ccc12` [Example 46, N-(1H-pyrazolo[3,4-b]pyridin-3-yl)-1-(trifluoromethyl) isoquinolin-6-amine]: the “reversal of haloperidol induced catalepsy” value was “reversal of haloperidol induced catalepsy”.
